Values of other authors as cited in patent US5580957A, “GnRH analogs” (The Salk Institute for Biological Studies, priority 1994, dated 1996).

What was measured:
GnRH = details: background statement
receptor (GnRH) = molecular target: T1, receptor (GnRH) (Homo sapiens, UniProt P30968); details: background statement
T1 sequence (P30968 1-328): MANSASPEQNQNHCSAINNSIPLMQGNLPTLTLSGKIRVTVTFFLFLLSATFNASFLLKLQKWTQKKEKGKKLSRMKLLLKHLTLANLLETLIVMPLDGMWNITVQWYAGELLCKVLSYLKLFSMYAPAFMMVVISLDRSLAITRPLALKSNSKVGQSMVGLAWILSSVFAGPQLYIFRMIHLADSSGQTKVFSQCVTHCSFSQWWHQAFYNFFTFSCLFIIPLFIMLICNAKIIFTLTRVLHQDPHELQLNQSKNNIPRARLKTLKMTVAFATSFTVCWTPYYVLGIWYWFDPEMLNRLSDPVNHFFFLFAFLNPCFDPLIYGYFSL

binding strength to the receptor versus native hormone (receptor (GnRH)): greater binding strength
Substance: pGlu-His-Trp-Ser-Tyr-D-Ala-Leu-Arg-Pro-Gly-NH2 [[D-Ala^6]-GnRH]
biological potency versus native hormone (GnRH): greater biological potency than the native hormone
